The text below walks through data of ChEMBL document CHEMBL3124908, “Design, synthesis, and evaluation of novel heteroaromatic analogs of curcumin as anti-cancer agents” (Eur J Med Chem, 2014).

Each structure is given as a SMILES string. pIC50: −log10 of the molar value.

The test system of one series is PC-3. Nature of the series: Cytotoxicity against human PC3 cells after 5 days by trypan blue exclusion assay. Type of series: functional, cell-based. Conditions: PC-3, 120 h.
The test system of the next series is DU-145. Nature of the series: Cytotoxicity against human DU145 cells after 5 days by trypan blue exclusion assay. It is filed as functional, cell-based. The conditions noted are these: DU-145, 120 h.
Series [1] is described as follows: Cytotoxicity against human MCF10A cells up to 1 uM after 5 days by trypan blue exclusion assay. Type of series: cell-based. The conditions noted are these: mcf-10a, 120 h.
The next series deals with A549. The series can be described thus: Cytotoxicity against human A549 cells after 5 days by trypan blue exclusion assay. It is filed as functional, cell-based. Conditions: A549, 120 h.
A further series relates to HeLa. The series can be described thus: Cytotoxicity against human HeLa cells after 5 days by trypan blue exclusion assay. Type of series: functional, cell-based. Conditions: 120 h.
For a further series, the system named is MDA-MB-231. The series can be described thus: Cytotoxicity against human MDA-MB-231 cells after 5 days by trypan blue exclusion assay. Conditions: MDA-MB-231, 120 h. It is filed as functional, cell-based.

In the case of `Cn1ccnc1/C=C1\CCC/C(=C\c2nccn2C)C1=O`, the figures for the pIC50 with PC-3 and in the series on DU-145 were 7.03 and 6.20, respectively.
The matching figures for `CN1C/C(=C\c2nccn2C)C(=O)/C(=C/c2nccn2C)C1`: 7.03 and 6.89.
Consider `Cn1ccnc1/C=C/C(=O)/C=C/c1nccn1C`, for which the pIC50 (as a rule, the IC50 on a negative log10 scale, so that one unit is a factor of ten) with PC-3 is 6.96; in the series on DU-145, 7.24.
Turning to `CC(C)n1ccnc1/C=C/C(=O)/C=C/c1nccn1C(C)C`, the results for the pIC50 in the series with PC-3 and in the series on DU-145 were 7.05 and 7.27, respectively.
Turning to `CCC(C)n1ccnc1/C=C/C(=O)/C=C/c1nccn1C(C)CC` (centres undefined), the Activity result in series [1] is “Non-toxic”. Besides, the pIC50 in the series on A549 was 7.00; with HeLa, 7.21; with MDA-MB-231 it was 6.89; in the series on PC-3 it was 7.20; in the series with DU-145 it was 7.46.
Regarding `CC(C)Cn1ccnc1/C=C/C(=O)/C=C/c1nccn1CC(C)C`, the Activity result in series [1] is given as “Non-toxic”. Besides, the pIC50 in the series with A549 was 6.96; in the series on HeLa it was 6.41; with MDA-MB-231, 6.82; in the series with PC-3, 7.34; in the series on DU-145 it was 7.24.
In the case of `Cn1nccc1/C=C/C(=O)/C=C/c1ccnn1C`, the figures for the pIC50 with PC-3 and with DU-145 were 6.89 and 6.80, respectively.
For the compound `O=C(/C=C/c1nccs1)/C=C/c1nccs1`, the pIC50 with PC-3 was 7.17; in the series on DU-145 it was 7.26.
As for `O=C(/C=C/c1cscn1)/C=C/c1cscn1`, the pIC50 in the series on PC-3 was 7.03; in the series with DU-145, 7.02.
With `Cc1nc(/C=C/C(=O)/C=C/c2coc(C)n2)co1`, the results for the pIC50 with PC-3 and in the series on DU-145 were 6.08 and 6.12, respectively.
On the same counts, the results for `Cc1cc(/C=C/C(=O)/C=C/c2cc(C)on2)no1` are 6.60 and 7.38.
For `Cc1cc(/C=C/C(=O)/C=C/c2cc(C)no2)on1`, the Activity result in series [1] is recorded as “Non-toxic”. The pIC50 in the series with A549 is 6.80; with HeLa it was 6.72; with MDA-MB-231, 6.81; in the series with PC-3, 7.39; in the series with DU-145, 7.80.
Take `O=C(/C=C/c1ccccn1)/C=C/c1ccccn1`: the Activity entry in series [1] is on record as “Non-toxic”. Besides, the pIC50 in the series on A549 was 7.29; with HeLa, 6.92; with MDA-MB-231, 7.01; in the series with PC-3, 7.48; in the series with DU-145, 7.70.
Regarding `CC(C)n1ccnc1/C=C1\CN(C)C/C(=C\c2nccn2C(C)C)C1=O`, the pIC50 was 6.96 in the series on PC-3 and 6.85 in the series on DU-145.
Turning to `CCC(C)n1ccnc1/C=C1\CN(C)C/C(=C\c2nccn2C(C)CC)C1=O` (centres undefined), the pIC50 with PC-3 was 5.18; in the series with DU-145, 8.00.
Consider `CN1C/C(=C\c2cnn(C)c2)C(=O)/C(=C/c2cnn(C)c2)C1`, for which the pIC50 in the series on PC-3 was 4.12.
For `CN1C/C(=C\c2ccnn2C)C(=O)/C(=C/c2ccnn2C)C1`, the pIC50 with PC-3 was 5.99; in the series on DU-145 it was 5.79.
On the same counts, the results for `CN1C/C(=C\c2nccs2)C(=O)/C(=C/c2nccs2)C1` are 6.38 and 7.34.
As to `CN1C/C(=C\c2cscn2)C(=O)/C(=C/c2cscn2)C1`, the figures for the negative-log IC50 (pIC50) in the series with PC-3 and in the series on DU-145 were 6.10 and 6.37, respectively.
On the same counts, the results for `Cc1nc(/C=C2\CN(C)C/C(=C\c3coc(C)n3)C2=O)co1` are 6.51 and 7.12.
For the compound `Cc1cc(/C=C2\CN(C)C/C(=C\c3cc(C)on3)C2=O)no1`, the results for the pIC50 in the series with PC-3 and in the series on DU-145 were 6.85 and 7.47, respectively.
On to `Cc1cc(/C=C2\CN(C)C/C(=C\c3cc(C)no3)C2=O)on1`, for which the pIC50 with PC-3 is 6.89; with DU-145, 6.16.
The matching figures for `CC(C)n1ccnc1/C=C1\CCC/C(=C\c2nccn2C(C)C)C1=O`: 6.80 and 7.00.
In the case of `CCC(C)n1ccnc1/C=C1\CCC/C(=C\c2nccn2C(C)CC)C1=O` (centres undefined), the pIC50 was 6.08 with PC-3 and 6.60 with DU-145.
The matching figures for `CC(C)Cn1ccnc1/C=C1\CCC/C(=C\c2nccn2CC(C)C)C1=O`: 6.33 and 6.44.
Regarding `Cn1cc(/C=C2\CCC/C(=C\c3cnn(C)c3)C2=O)cn1`, the results for the pIC50 in the series on PC-3 and with DU-145 were 3.89 and 4.05, respectively.
For the compound `Cn1nccc1/C=C1\CCC/C(=C\c2ccnn2C)C1=O`, the pIC50 in the series with PC-3 is 6.59; in the series with DU-145, 6.14.
The matching figures for `O=C1/C(=C/c2nccs2)CCC/C1=C\c1nccs1`: 6.96 and 6.92.
For the compound `O=C1/C(=C/c2cscn2)CCC/C1=C\c1cscn1`, the pIC50 in the series on PC-3 was 6.92; with DU-145, 7.12.
The matching figures for `Cc1nc(/C=C2\CCC/C(=C\c3coc(C)n3)C2=O)co1`: 5.71 and 5.78.
The matching figures for `Cc1cc(/C=C2\CCC/C(=C\c3cc(C)on3)C2=O)no1`: 7.15 and 7.15.
The matching figures for `Cc1cc(/C=C2\CCC/C(=C\c3cc(C)no3)C2=O)on1`: 7.27 and 6.47.
On to `COc1cc(/C=C/C(=O)CC(=O)/C=C/c2ccc(O)c(OC)c2)ccc1O` [CURCUMIN], for which the pIC50 with A549 was 4.82; in the series on HeLa, 4.90; in the series with MDA-MB-231 it was 6.06; in the series with PC-3, 5.70; with DU-145, 6.52.
